Reference: US8057829B2, “Methods for repelling insects using sesquiterpene hydrocarbons and their derivatives” (Sterling International Inc., priority 2008, dated 2011)

Legend:
[1] = test system: housefly (Musca domestica) antenna; test: GC-EAD antennal response, housefly; conditions: synthetic mixture, about 100 ng of each compound
[2] = test system: female mosquito Culex pipiens antenna; test: GC-EAD antennal response, Culex pipiens; conditions: female Culex pipiens antennae; about 100 ng of each compound; responses weak, but repeatable; FIGS. 7 and 8
Experimental: The GC-EAD responses of the female mosquito Culex pipiens antenna were tested on a synthetic mixture of 1-octen-3-ol, and two sesquiterpene hydrocarbons, β-caryophyllene and isocaryophyllene, with about 100 ng of each compound in the mixture.
The GC-EAD responses of the female mosquito Culex pipiens antenna were tested on a synthetic mixture of 1-octen-3-ol, and representative sesquiterpene hydrocarbons and derivatives including (+)-longipinene, (−)-isolongifolene, (+)-longifolene, β-caryophyllene, and isolongifolenone, with about 100 ng of each compound in the mixture.
Antennal responses were weak, but repeatable, thus are considered to be true responses.
(§1) The following procedures were employed to test the EAD response of an insect antenna to a repellent compound. The GC-EAD technique provides an efficient tool for screening behaviorally active repellents. Several synthetic mixtures of potential insect repellent candidates, mostly sesquiterpene hydrocarbons and derivatives, were analyzed in splitless mode using a Varian CP-3800 GC equipped with a polar column (Innowax; 1.0 μm film thickness, 30 m×0.53 mm ID; J & W Scientific), and a 1:1 effluent splitter that allowed simultaneous flame ionization detection (FID) and EAD of the separated volatile compounds. Helium was used as the carrier gas, and the injector temperature was 220° C. The column temperature was 50° C. for 2 min, rising to 240° C. at 10° C./min, then held for 10 min. The outlet for the EAD was held in a humidified air stream flowing at 0.5 liter/min. over an antennal preparation. A glass capillary indifferent electrode filled with Beadle-Ephrussi Ringer, and grounded via a silver wire, was inserted into the severed insect's head with the antennae. A similar recording electrode connected to a high-impedance DC amplifier with automatic baseline drift compensation was placed in contact with the distal end of one antenna (Zhang et al., Chemoecology, 10:69-80 (2000)). The antennal signals were stored and analyzed on a PC equipped with a serial IDAC interface box and the program EAD ver. 2.5 (Syntech, Hilversum, The Netherlands). The compound 1-octen-3-ol (known attractant for many flies and mosquitoes) was included in most of the synthetic mixtures, as a positive control. The results of the experiments are shown in FIGS. 1-10 and described above.

[3] = test system: female antennae of sand fly Phlebotomus papatasi and mosquitoes Aedes aegypti, Anopheles gambiae, Anopheles stephensi; test: GC-EAD responses of sand fly and three mosquitoes to synthetic mixtures; conditions: about 100 ng of each compound, on one or more of the sand fly or the mosquitoes, FIGS. 9 and 10
Outline: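 Female antennae recorded by GC-EAD (split with FID) against synthetic mixtures with about 100 ng of each compound, 1-octen-3-ol as positive control; polar Innowax column, 50° C 2 min then 10° C/min to 240° C. Effluent in humidified air at 0.5 liter/min over severed-head preparation with Ringer-filled electrodes.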

Anopheles stephensi = test: Y-tube olfactometer behavioral bioassay (spatial repellency); assay type: in vivo; conditions: for Number of mosquitoes in each arm: Repellent / Number of mosquitoes in each arm: Blank / Number of mosquitoes in each arm: Bottom: Anopheles stephensi females; for SAI (Spatial Activity Index): Anopheles stephensi
Outline: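 Female insects (25-40 per run; mosquitoes 6-10 days old, sand flies 3-10 days) released into a CO2-baited Y-tube holding a treatment dispenser in one arm and a blank in the other; arm counts taken after 10 min at 23-25° C. Arms swapped in a repeat run; pooled data tested by χ2 (df=1).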

[4] = test system: antennae of housefly, sand fly, and mosquitoes Aedes aegypti, Anopheles gambiae, Anopheles stephensi; test: GC-EAD antennal responses to SPME samples of clove essential oil; conditions: component of clove essential oil SPME sample; response by one or more of the insects; FIG. 1
Experimental: The GC-EAD antennal response of a female housefly (Musca domestica), sand fly (Phlebotomus papatasi), and mosquitoes including the species Aedes aegypti, Anopheles gambiae, and Anopheles stephensi were tested with clove essential oil. FIG. 1 is a simultaneous recording of GC flame ionization detection (FID) and electroantennographic detection (EAD) of the insect antennae to solid phase microextraction (SPME: CAR/PDMS) samples of clove essential oil in a 20 ml glass vial for 20 sec.
as §1, with “The results of the experiments are shown in FIGS. 1-10 and described above.” left out

[5] = female housefly antenna, FIG. 3
[6] = release rate per chemical (1-60 mg/day; β-Caryophyllene 10 mg/day), 10 min
[7] = release rate per chemical (β-Caryophyllene 10 mg/day), 10 min

| Structure (SMILES) | GC-EAD antennal activity [1, 5] | GC-EAD antennal activity [2] | GC-EAD antennal activity [3] | Number of mosquitoes in each arm: Repellent (Anopheles stephensi; [6]) | Number of mosquitoes in each arm: Blank (Anopheles stephensi; [7]) | Number of mosquitoes in each arm: Bottom (Anopheles stephensi; [7]) | SAI (Spatial Activity Index) (Anopheles stephensi; β-Caryophyllene 10 mg/day) | GC-EAD antennal activity ([1]; male housefly antenna, FIG. 4) | GC-EAD antennal activity [4] | Number of mosquitoes in each arm: Blank (Anopheles stephensi; release rate 35 mg/day, PE-Bag) | Number of mosquitoes in each arm: Bottom (Anopheles stephensi; release rate 35 mg/day, PE-Bag) | Number of mosquitoes in each arm: Repellent (Anopheles stephensi; release rate 35 mg/day, PE-Bag) | SAI (Spatial Activity Index) (Anopheles stephensi; release rate 35 mg/day) |
| --- | --- | --- | --- | --- | --- | --- | --- | --- | --- | --- | --- | --- | --- |
| C=C1C2CCC3[C@H]2C(C)(C)CCC[C@]13C (single isomer, unassigned; (+)) [(+)-Longifolene] | active | active | antennally active | 9 | 23 | 29 | 0.44 |  |  |  |  |  |  |
| C=C1CC/C=C(/C)CC[C@@H]2[C@@H]1CC2(C)C [Isocaryophyllene, isocaryophyllene] |  | active | antennally active | 8 | 21 | 26 | 0.45 | EAD-active |  |  |  |  |  |
| C=C1CC/C=C(\C)CC[C@@H]2[C@@H]1CC2(C)C [β-Caryophyllene, β-caryophyllene] | active | active | antennally active | 19 | 23 | 26 | 0.10 | EAD-active | EAD-active | 22 | 43 | 5 | 0.63 |
